Assay results published in ChEMBL document CHEMBL1149799, “Bioactive peroxides as potential therapeutic agents” (Eur J Med Chem, 2008).
Converted amounts (≈) assume the structure as drawn.

Tests used:
L1210 = experiment: Cytotoxicity against mouse L1210 cells; format: functional, cell-based; conditions: Mus musculus, L1210
KB = experiment: Cytotoxicity against human KB cells; format: functional, cell-based; conditions: for EC50: read-out: ED50 (the source's name)
LoVo = experiment: Cytotoxicity against human LoVo cells; format: functional
A549 = experiment: Cytotoxicity against human A549 cells; format: functional, cell-based; conditions: for IC50 / EC50: Homo sapiens, A549; for EC50: read-out: ED50 (the source's name)
P388 = experiment: Cytotoxicity against mouse P388 cells; format: functional, cell-based; conditions: for IC50 / EC50: Mus musculus, P388; for EC50: read-out: ED50 (the source's name)
HT-29 = experiment: Cytotoxicity against human HT29 cells; format: functional, cell-based; conditions: for IC50 / EC50: Homo sapiens, HT-29; for EC50: read-out: ED50 (the source's name)
DU-145 = experiment: Cytotoxicity against human DU145 cells; format: functional, cell-based; conditions: Homo sapiens, DU-145
[1] = Cytotoxicity against human MEL28 cells; conditions: SK-MEL-28
[2] = Cytotoxicity against mouse Ehrlich Ascites carcinoma by trypan blue exclusion assay; format: functional

Q: Which IC50 (L1210) does the source give for `CC(CC/C=C/CC/C=C/c1ccccc1)C[C@@]1(C)C[C@@](C)(CC(=O)O)OO1` (stereo partly specified) [EPIPLAKINIC ACID D] here?
A: Its IC50 is 0.017 µg/mL (≈ 0.044 µM).

Q: What about the MIC (KB; Homo sapiens) of the same compound?
A: The MIC was 0.1 µg/mL (≈ 0.259 µM).

Q: What about the MIC (LoVo) of the same compound?
A: Its MIC is 0.1 µg/mL (≈ 0.259 µM).

Q: With `COC(=O)C[C@]1(C)C[C@@](C)(CC(C)CC/C=C/CC/C=C/c2ccccc2)OO1` (stereo partly specified) as the compound, how does the IC50 (L1210) read?
A: Its IC50 is 0.0043 µg/mL (≈ 0.0107 µM).

Q: And the MIC (KB; Homo sapiens)?
A: Its MIC is 1 µg/mL (≈ 2.5 µM).

Q: And the MIC (LoVo)?
A: Its MIC is 0.1 µg/mL (≈ 0.25 µM).

Q: For `C=C1C(=O)O[C@H]2[C@H]1[C@H](OC(C)=O)CC(=C)[C@H](OO)CC[C@@]1(C)O[C@H]21` [PEROXYFEROLIDE], which EC50 (KB; Homo sapiens, KB) is on record?
A: Its EC50 is 0.29 µg/mL (≈ 0.857 µM).

Q: What does the source list for `C=CCCC/C=C/C=C\CCCCCCCC[C@H]1CC[C@H]([C@@H]2CC[C@@H](CC(=O)OC)OO2)O1`?
A: IC50 (A549): 0.01 µg/mL (≈ 0.0216 µM); IC50 (P388): 0.01 µg/mL (≈ 0.0216 µM); IC50 (HT-29): 0.05 µg/mL (≈ 0.108 µM); IC50 (DU-145): 0.1 µg/mL (≈ 0.216 µM); IC50 [1]: 0.1 µg/mL (≈ 0.216 µM)

Q: For `C=C(C)C(CC[C@@H](C)[C@H]1CC[C@H]2[C@@H]3CC=C4C[C@@H](O)CC[C@]4(C)[C@H]3CC[C@]12C)OO` (stereo partly specified), which EC50 (KB; Homo sapiens, KB) is on record?
A: Its EC50 is 0.33 µg/mL (≈ 0.792 µM).

Q: What about the EC50 (A549) of the same compound?
A: Its EC50 is 0.64 µg/mL (≈ 1.54 µM).

Q: What about the EC50 (P388) of the same compound?
A: The EC50 was 0.26 µg/mL (≈ 0.624 µM).

Q: And the EC50 (HT-29)?
A: Its EC50 is 0.43 µg/mL (≈ 1.03 µM).

Q: With `CC(C)(O)/C=C/C[C@@](C)(O)[C@H]1CC[C@@](C)([C@H]2CC[C@H]([C@]3(C)CC[C@H]([C@](C)(O)C/C=C/C(C)(C)OO)O3)O2)O1` as the compound, how does the IC50 (KB; Homo sapiens, KB) read?
A: Its IC50 is 5.3 µg/mL (≈ 9.8 µM).

Q: With `COc1cccc2c1C(=O)c1c(O)c3c(c(O)c1C2=O)C[C@@](O)(C(=O)CO)C[C@@H]3O[C@H]1C[C@H](N)[C@H](O)[C@H](C)O1` [DOXORUBICIN] as the compound, how does the IC50 (A549) read?
A: The IC50 was 0.002 µg/mL (≈ 0.00368 µM).

Q: With `C=C(C)C(CC[C@@H](C)[C@H]1CC[C@H]2[C@@H]3CC(=O)C4=CC(=O)CC[C@]4(C)[C@H]3CC[C@]12C)OO` (stereo partly specified) as the compound, how does the EC50 (KB; Homo sapiens, KB) read?
A: The EC50 was 1.15 µg/mL (≈ 2.68 µM).

Q: And the EC50 (A549)?
A: The EC50 was 0.88 µg/mL (≈ 2.05 µM).

Q: What about the EC50 (P388) of the same compound?
A: The EC50 was 0.53 µg/mL (≈ 1.24 µM).

Q: And the EC50 (HT-29)?
A: The EC50 was 1.48 µg/mL (≈ 3.45 µM).

Q: What does the source list for `CC1=C(CCC(C)(O)/C=C/C[C@@]2(C)CC[C@H]([C@H](C)C(=O)O)OO2)C(C)(C)CCC1` (stereo partly specified) [TASNEMOXIDE A]?
A: IC50 (A549): > 1 µg/mL; IC50 (P388): > 1 µg/mL; IC50 (HT-29): > 1 µg/mL

Q: Which results are given for `CC(CC/C=C/CC/C=C/c1ccccc1)C[C@]1(C)C[C@@](C)(CC(=O)O)OO1` (stereo partly specified) [PLAKINIC ACID D]?
A: IC50 (L1210): 0.026 µg/mL (≈ 0.0673 µM); MIC (KB; Homo sapiens): 0.001 µg/mL (≈ 0.00259 µM); MIC (LoVo): 0.001 µg/mL (≈ 0.00259 µM)

Q: What does the source list for `C[C@H](C/C=C/C(C)(C)OO)[C@H]1CC[C@H]2[C@@H]3CC=C4C[C@@H](O)CC[C@]4(C)[C@H]3CC[C@]12C`?
A: EC50 (KB; Homo sapiens, KB): 1.41 µg/mL (≈ 3.38 µM); EC50 (A549): 1.68 µg/mL (≈ 4.03 µM); EC50 (P388): 0.22 µg/mL (≈ 0.528 µM); EC50 (HT-29): 1.27 µg/mL (≈ 3.05 µM)

Q: Which IC50 (P388) does the source give for `C/C=C/C=C/CCCCCCCCCCCCC[C@]1(OC)C=C[C@@H](CC(=O)OC)OO1` [XESTIN A] here?
A: The IC50 was 0.3 µg/mL (≈ 0.687 µM).

Q: Which IC50 (A549) does the source give for `C=C(CCCC(C)(C)O)C(=O)CC[C@@]1(C)CC[C@@H]([C@H](C)C(=O)OC)OO1` [AIKUPIKOXIDE D] here?
A: Its IC50 is > 1 µg/mL.

Q: What about the IC50 (P388) of the same compound?
A: Its IC50 is > 1 µg/mL.

Q: What about the IC50 (HT-29) of the same compound?
A: Its IC50 is > 1 µg/mL.

Q: What does the source list for `C=CCC/C=C\C=C/CCCCCCCC[C@@H]1CC[C@@H]([C@@H]2CC[C@@H](CC(=O)OC)OO2)O1`?
A: IC50 (A549): 0.1 µg/mL (≈ 0.223 µM); IC50 (P388): 0.05 µg/mL (≈ 0.111 µM); IC50 (HT-29): 0.1 µg/mL (≈ 0.223 µM); IC50 (DU-145): 0.1 µg/mL (≈ 0.223 µM); IC50 [1]: 0.1 µg/mL (≈ 0.223 µM)

Q: Which IC50 (L1210) does the source give for `COC(=O)C[C@]1(C)C[C@@](C)(CC(C)CCCC/C=C/CC/C=C\c2ccccc2)OO1` (stereo partly specified) here?
A: The IC50 was 0.013 µg/mL (≈ 0.0303 µM).

Q: And the MIC (KB; Homo sapiens)?
A: Its MIC is 1 µg/mL (≈ 2.33 µM).

Q: What about the MIC (LoVo) of the same compound?
A: Its MIC is 1 µg/mL (≈ 2.33 µM).

Q: For `C=CCC/C=C\C=C/CCCCCCCC[C@H]1CC[C@H]([C@@H]2CC[C@@H](CC(=O)[O-])OO2)O1.[Na+]` [stolonoxide C], which IC50 (A549) is on record?
A: The IC50 was 0.1 µg/mL.

Q: What about the IC50 (P388) of the same compound?
A: Its IC50 is 0.5 µg/mL.

Q: What about the IC50 (HT-29) of the same compound?
A: Its IC50 is 0.1 µg/mL.

Q: And the IC50 (DU-145)?
A: The IC50 was 0.1 µg/mL.

Q: And the IC50 [1]?
A: Its IC50 is 0.5 µg/mL.

Q: With `C[C@@H]1CC[C@@H]2[C@]34OO[C@@](C)(CC[C@@H]13)O[C@H]4OC(=O)[C@@]2(C)O` as the compound, how does the IC50 [2] read?
A: Its IC50 is > 125 µM.

Q: What about the IC80 [2] of the same compound?
A: The IC80 was > 125 µM.

Q: With `C=CCC/C=C\C=C/CCCCCCCC[C@H]1CC[C@H]([C@@H]2CC[C@@H](CC(=O)OC)OO2)O1` as the compound, how does the IC50 (A549) read?
A: The IC50 was 0.1 µg/mL (≈ 0.223 µM).

Q: And the IC50 (P388)?
A: The IC50 was 0.5 µg/mL (≈ 1.11 µM).

Q: And the IC50 (HT-29)?
A: Its IC50 is 0.05 µg/mL (≈ 0.111 µM).

Q: What about the IC50 (DU-145) of the same compound?
A: The IC50 was 0.1 µg/mL (≈ 0.223 µM).

Q: And the IC50 [1]?
A: Its IC50 is 0.5 µg/mL (≈ 1.11 µM).

Q: Which IC50 (A549) does the source give for `CC(=O)CCCC(C)(C)C(=O)CC/C(C)=C/CC[C@@]1(C)CC[C@H]([C@H](C)C(=O)O)OO1` [AIKUPIKOXIDE A] here?
A: Its IC50 is > 1 µg/mL.

Q: And the IC50 (P388)?
A: Its IC50 is > 1 µg/mL.

Q: What about the IC50 (HT-29) of the same compound?
A: Its IC50 is > 1 µg/mL.

Q: What does the source list for `C=C(CCC[C@@]1(C)CC[C@H]([C@H](C)C(=O)OC)OO1)CCC1(O)C(=C)CCCC1(C)C` (stereo partly specified) [TASNEMOXIDE C]?
A: IC50 (A549): > 1 µg/mL; IC50 (P388): > 1 µg/mL; IC50 (HT-29): > 1 µg/mL

Q: For `COC(=O)C[C@@]1(C)C[C@](C)(CC(C)CCCCCCCCc2ccccc2)OO1` (stereo partly specified) [EPIPLAKINIC ACID E], which IC50 (A549) is on record?
A: Its IC50 is 2.5 µg/mL (≈ 6.18 µM).

Q: And the IC50 (P388)?
A: The IC50 was 2 µg/mL (≈ 4.94 µM).

Q: With `C=C(C)C(CC[C@@H](C)[C@H]1CC[C@H]2[C@@H]3C[C@@H](O)C4=CC(=O)CC[C@]4(C)[C@H]3CC[C@]12C)OO` (stereo partly specified) as the compound, how does the EC50 (KB; Homo sapiens, KB) read?
A: Its EC50 is 0.79 µg/mL (≈ 1.83 µM).

Q: What about the EC50 (A549) of the same compound?
A: Its EC50 is 0.58 µg/mL (≈ 1.35 µM).

Q: And the EC50 (P388)?
A: The EC50 was 0.22 µg/mL (≈ 0.511 µM).

Q: What about the EC50 (HT-29) of the same compound?
A: Its EC50 is 0.47 µg/mL (≈ 1.09 µM).

Q: For `C[C@H](C/C=C/C(C)(C)OO)[C@H]1CC[C@H]2[C@@H]3C[C@@H](O)C4=CC(=O)CC[C@]4(C)[C@H]3CC[C@]12C`, which EC50 (KB; Homo sapiens, KB) is on record?
A: Its EC50 is 0.4 µg/mL (≈ 0.929 µM).

Q: What about the EC50 (A549) of the same compound?
A: The EC50 was 1 µg/mL (≈ 2.32 µM).

Q: What about the EC50 (P388) of the same compound?
A: Its EC50 is 0.28 µg/mL (≈ 0.65 µM).

Q: What about the EC50 (HT-29) of the same compound?
A: Its EC50 is 0.63 µg/mL (≈ 1.46 µM).

Q: Which results are given for `CC(C)[C@@H](C)C1CC1[C@@H](C)[C@H]1CC[C@@H]2[C@]1(C)CC[C@H]1[C@]23C=C[C@]2(C[C@@H](O)CC[C@]12C)OO3` (stereo partly specified)?
A: Activity (KB): 2.1 µg/mL; Activity (A549): 2.7 µg/mL; Activity (P388): 0.4 µg/mL; Activity (HT-29): 1.4 µg/mL
